Our source for the IC50, response vs control in vivo and inhibition values is US7884124B2, “Fluoro-substituted inhibitors of D-amino acid oxidase” (Sepracor Inc., priority 2006, dated 2011).

For one assay, the target named is Human DAAO (Homo sapiens, UniProt P14920). Put plainly: D-Amino Acid Oxidase Enzyme Assay (D-serine substrate, horseradish peroxidase/Amplex Red coupled fluorescence). The assay is classed as biochemical.
The subject of assay [1] is D-Serine Levels in the cerebellum. Kind of assay: In vivo elevation of D-serine levels in the cerebellum (LC/MS/MS). The conditions noted are these: Mus musculus, ip, mice, read-out: Fold increase in D-serine in the cerebellum over vehicle; for response vs control in vivo at 10 mg/kg: 10 mg/kg i.p.; for response vs control in vivo at 50 mg/kg: 50 mg/kg i.p. Here is the method:
In another example, the compounds activity is determined by measuring D-serine levels in vivo. Elevation of the D-serine level in a certain brain area (e.g., the cerebellum) of a test animal (e.g., mouse, rat, pig and the like) is indicative of DAAO inhibition in vivo. An exemplary assay format, which measures D-serine levels (LC/MS/MS) in the cerebellum of mice two hours and six hours after intraperitoneal (i.p.) dosing, is described herein (e.g., Example 9). Increases in D-serine levels were determined through comparison with vehicle. Useful variations of this assay will be apparent to those of skill in the art. Compounds of the invention are judged to be sufficiently active in this assay when at least one, preferably at least two, more preferably at least three and most preferably all four of the following criteria are met:
Mice (C57BL/6, 8-9 weeks of age) were dosed intraperitoneally at 10 mL/kg with 50 mg/kg or 10 mg/kg of compound suspended in 45% (w/v) hydroxy-β-cyclodextrin vehicle. Animals were sacrificed at either 2 or 6 hours post compound administration with an N=3 per time point. At sacrifice, trunk blood was collected into tubes containing potassium EDTA, which were then centrifuged to permit isolation of plasma. The cerebellum from each animal was dissected. Plasma and cerebellum samples were stored at −80° C. until samples were analyzed (LC/MS/MS).

Where [2] appears, read: D-serine 5 mM, pH 7.4, read-out: Human DAAO Inhibition (IC50).

Structures are written as SMILES. Where two headings read alike, the source gives them in different places.

Sequence of Human DAAO (P14920 whole entry): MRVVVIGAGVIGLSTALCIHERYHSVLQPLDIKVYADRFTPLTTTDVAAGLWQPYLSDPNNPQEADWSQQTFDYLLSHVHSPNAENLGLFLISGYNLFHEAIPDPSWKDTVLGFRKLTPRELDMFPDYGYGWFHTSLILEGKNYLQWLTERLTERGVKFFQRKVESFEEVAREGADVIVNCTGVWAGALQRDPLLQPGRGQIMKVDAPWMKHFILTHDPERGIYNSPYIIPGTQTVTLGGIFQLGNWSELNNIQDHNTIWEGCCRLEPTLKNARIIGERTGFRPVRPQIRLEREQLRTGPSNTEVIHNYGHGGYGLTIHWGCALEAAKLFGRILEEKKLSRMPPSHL
Protocol for Human DAAO: This coupled reaction uses the enzyme substrate Amplex Red (Molecular Probes), which is converted to the fluorescent reaction product, resorufin (excitation 530-560 nm; emission ˜590 nm). All reagents were prepared in 50 mM sodium phosphate buffer at pH 7.4 and inhibition curves were generated at this pH.
The final concentrations of components in 200 μl total volume per well (black clear-bottom 96-well plate, Costar) were:
(a) Horseradish peroxidase: 4 Units per ml
(d) Amplex Red reagent: 50 uM
The reactions were initiated by addition of DAAO enzyme while the fluorescence was monitored. […] Inhibition curves were generated in the presence of varying concentrations of the inhibitor and IC50 values were calculated for each inhibitor.

On to `O=C(O)c1[nH]c2ccoc2c1Cl` [Compound 79, 6-chloro-4H-furo[3,2-b]pyrrole-5-carboxylic acid], for which the IC50 (usually the concentration at which inhibition is half-maximal) on Human DAAO (setting [2]) was below 0.1 µM.
On the same count and under the same terms, the figure for `O=C(O)c1cc2oc(Br)cc2[nH]1` [Compound 73, 2-bromo-4H-furo[3,2-b]pyrrole-5-carboxylic acid] is below 100 µM.
`O=C(O)c1[nH]c2ccsc2c1Cl` [Compound 70, 6-chloro-4H-thieno[3,2-b]pyrrole-5-carboxylic acid]: the response vs control in vivo at 10 mg/kg in assay [1] (2 h) and in assay [1] (6 h) was below 150% throughout. Also, the concentration for half-maximal inhibition (IC50) on Human DAAO (setting [2]) is below 0.1 µM.
Regarding `O=C(O)c1cc2cc(Br)sc2[nH]1` [Compound 65, 2-bromo-6H-thieno[2,3-b]pyrrole-5-carboxylic acid], the IC50 at Human DAAO (setting [2]) was below 100 µM.
Consider `O=C(O)c1cc2cc(Cl)sc2[nH]1` [Compound 80, 2-chloro-6H-thieno[2,3-b]pyrrole-5-carboxylic acid], for which the IC50 on Human DAAO (setting [2]) is below 100 µM.
Take `O=C(O)c1cc2scc(F)c2[nH]1` [Compound 56, 3-fluoro-4H-thieno[3,2-b]pyrrole-5-carboxylic acid]: the results for the response vs control in vivo at 10 mg/kg in assay [1] (2 h) and in assay [1] (6 h) were 150 to 200% and below 150%, respectively. Moreover, the IC50 at Human DAAO (setting [2]) is below 0.025 µM.
Take `O=C(O)c1cc2occ(Br)c2[nH]1` [Compound 30, 3-bromo-4H-furo[3,2-b]pyrrole-5-carboxylic acid]: in assay [1] (2 h), the response vs control in vivo at 10 mg/kg was below 150% and the response vs control in vivo at 50 mg/kg was 150 to 200%. In assay [1] (6 h), the response vs control in vivo at 10 mg/kg was below 150% and the response vs control in vivo at 50 mg/kg is below 150%. At Human DAAO (setting [2]), the IC50 is below 0.1 µM.
In the case of `O=C(O)c1[nH]c2sccc2c1Cl` [Compound 69, 4-chloro-6H-thieno[2,3-b]pyrrole-5-carboxylic acid], the IC50 at Human DAAO (setting [2]) is below 0.1 µM.
With `O=C(O)c1cc2sc(Cl)cc2[nH]1` [Compound 4, 2-chloro-4H-thieno[3,2-b]pyrrole-5-carboxylic acid], the response vs control in vivo at 50 mg/kg in assay [1] (2 h) and in assay [1] (6 h) was below 150% each time. The IC50 at Human DAAO (setting [2]) was below 100 µM.
Regarding `O=C(O)c1[nH]c2sc(Br)cc2c1Br` [Compound 84, 2,4-dibromo-6H-thieno[2,3-b]pyrrole-5-carboxylic acid], on Human DAAO, testing at 100 µM gave an inhibition of 33%.
`O=C(O)c1[nH]c2sccc2c1Br` [Compound 64, 4-bromo-6H-thieno[2,3-b]pyrrole-5-carboxylic acid]: in assay [1] (2 h), the response vs control in vivo at 10 mg/kg was below 150% and the response vs control in vivo at 50 mg/kg is below 150%. In assay [1] (6 h), the response vs control in vivo at 10 mg/kg is below 150% and the response vs control in vivo at 50 mg/kg was below 150%. Moreover, on Human DAAO (setting [2]), the IC50 was below 1 µM.
With `O=C(O)c1cc2c(Cl)csc2[nH]1` [Compound 81, 3-chloro-6H-thieno[2,3-b]pyrrole-5-carboxylic acid], on Human DAAO (setting [2]), the concentration for half-maximal inhibition (IC50) was below 0.1 µM.
Still for that read-out and setting: the value for `O=C(O)c1cc2sc(Br)c(Br)c2[nH]1` [Compound 6, 2,3-dibromo-4H-thieno[3,2-b]pyrrole-5-carboxylic acid] was below 100 µM.
With `O=C(O)c1[nH]c2ccoc2c1Br` [Compound 72, 6-bromo-4H-furo[3,2-b]pyrrole-5-carboxylic acid], in assay [1] (2 h), the response vs control in vivo at 10 mg/kg was below 150% and the response vs control in vivo at 50 mg/kg was below 150%. Also, in assay [1] (6 h), the response vs control in vivo at 10 mg/kg is below 150% and the response vs control in vivo at 50 mg/kg is below 150%. The IC50 at Human DAAO (setting [2]) is below 1 µM.
As to `O=C(O)c1[nH]c2ccsc2c1Br` [Compound 71, 6-bromo-4H-thieno[3,2-b]pyrrole-5-carboxylic acid], the response vs control in vivo at 10 mg/kg in assay [1] (2 h) and in assay [1] (6 h) was below 150% in each case. In addition, the IC50 at Human DAAO (setting [2]) is below 1 µM.
For the molecule `O=C(O)c1cc2c(F)csc2[nH]1` [Compound 68, 3-fluoro-6H-thieno[2,3-b]pyrrole-5-carboxylic acid], in assay [1] (2 h), the response vs control in vivo at 10 mg/kg was below 150% and the response vs control in vivo at 50 mg/kg lay in the range of 150 to 200%. Further, in assay [1] (6 h), the response vs control in vivo at 10 mg/kg is below 150% and the response vs control in vivo at 50 mg/kg was in the range of 150 to 200%. Besides, at Human DAAO (setting [2]), the IC50 was below 0.025 µM.
Consider `O=C(O)c1cc2sc(F)cc2[nH]1` [Compound 55, 2-fluoro-4H-thieno[3,2-b]pyrrole-5-carboxylic acid], for which, in assay [1] (2 h), the response vs control in vivo at 10 mg/kg is below 150% and the response vs control in vivo at 50 mg/kg was above 200%. Further, in assay [1] (6 h), the response vs control in vivo at 10 mg/kg was below 150% and the response vs control in vivo at 50 mg/kg is 150 to 200%. In addition, the half-maximal inhibitory concentration (IC50) on Human DAAO (setting [2]) was below 0.025 µM.
Take `O=C(O)c1cc2oc(F)cc2[nH]1` [Compound 78, 2-fluoro-4H-furo[3,2-b]pyrrole-5-carboxylic acid]: the IC50 at Human DAAO (setting [2]) is below 0.025 µM.
Same read-out and setting: the value for `O=C(O)c1[nH]c2sccc2c1F` [Compound 82, 4-fluoro-6H-thieno[2,3-b]pyrrole-5-carboxylic acid] was below 0.1 µM.
With `O=C(O)c1cc2cc(F)sc2[nH]1` [Compound 66, 2-fluoro-6H-thieno[2,3-b]pyrrole-5-carboxylic acid], in assay [1] (2 h), the response vs control in vivo at 10 mg/kg fell in the range of 150 to 200% and the response vs control in vivo at 50 mg/kg is above 200%. Besides, in assay [1] (6 h), the response vs control in vivo at 10 mg/kg was below 150% and the response vs control in vivo at 50 mg/kg lay in the range of 150 to 200%. Besides, the IC50 on Human DAAO (setting [2]) is below 0.025 µM.
As to `O=C(O)c1cc2scc(Cl)c2[nH]1` [Compound 67, 3-chloro-4H-thieno[3,2-b]pyrrole-5-carboxylic acid], the response vs control in vivo at 10 mg/kg in assay [1] (2 h) and in assay [1] (6 h) was below 150% throughout. In addition, the response vs control in vivo at 50 mg/kg in assay [1] (2 h) and in assay [1] (6 h) was below 150% each time. Further, the half-inhibitory concentration (IC50) at Human DAAO (setting [2]) is below 0.025 µM.
Consider `O=C(O)c1[nH]c2ccoc2c1F` [Compound 75, 6-fluoro-4H-furo[3,2-b]pyrrole-5-carboxylic acid], for which, in assay [1] (2 h), the response vs control in vivo at 10 mg/kg was above 200% and the response vs control in vivo at 50 mg/kg is above 200%. In assay [1] (6 h), the response vs control in vivo at 10 mg/kg was 150 to 200% and the response vs control in vivo at 50 mg/kg was above 200%. Also, on Human DAAO (setting [2]), the IC50 was below 0.025 µM.
`O=C(O)c1cc2oc(Cl)cc2[nH]1` [Compound 23, 2-chloro-4H-furo[3,2-b]pyrrole-5-carboxylic acid]: the IC50 at Human DAAO (setting [2]) is below 100 µM.
For the molecule `O=C(O)c1cc2scc(Br)c2[nH]1` [Compound 49, 3-bromo-4H-thieno[3,2-b]pyrrole-5-carboxylic acid], the response vs control in vivo at 50 mg/kg in assay [1] (2 h) and in assay [1] (6 h) was below 150% in each case. The half-inhibitory concentration (IC50) at Human DAAO (setting [2]) was below 0.1 µM.
Take `O=C(O)c1cc2occ(Cl)c2[nH]1` [Compound 76, 3-chloro-4H-furo[3,2-b]pyrrole-5-carboxylic acid]: the response vs control in vivo at 10 mg/kg in assay [1] (2 h) and in assay [1] (6 h) was below 150% each time. For the same molecule, at Human DAAO, the IC50 was below 0.1 µM.
In the case of `O=C(O)c1cc2occ(F)c2[nH]1` [Compound 74, 3-fluoro-4H-furo[3,2-b]pyrrole-5-carboxylic acid], in assay [1] (2 h), the response vs control in vivo at 10 mg/kg was above 200% and the response vs control in vivo at 50 mg/kg is above 200%. Besides, in assay [1] (6 h), the response vs control in vivo at 10 mg/kg fell in the range of 150 to 200% and the response vs control in vivo at 50 mg/kg is above 200%. For the same molecule, the IC50 at Human DAAO (setting [2]) was below 0.025 µM.
`O=C(O)c1cc2c(Br)csc2[nH]1` [Compound 8, 3-bromo-6H-thieno[2,3-b]pyrrole-5-carboxylic acid]: in assay [1] (2 h), the response vs control in vivo at 10 mg/kg was below 150% and the response vs control in vivo at 50 mg/kg lay in the range of 150 to 200%. Moreover, in assay [1] (6 h), the response vs control in vivo at 10 mg/kg was below 150% and the response vs control in vivo at 50 mg/kg was 150 to 200%. Besides, the half-inhibitory concentration (IC50) at Human DAAO (setting [2]) was below 1 µM.
As for `O=C(O)c1[nH]c2ccsc2c1F` [Compound 54, 6-fluoro-4H-thieno[3,2-b]pyrrole-5-carboxylic acid], the response vs control in vivo at 10 mg/kg in assay [1] (2 h) and in assay [1] (6 h) was above 200% throughout. Moreover, the IC50 at Human DAAO (setting [2]) was below 0.025 µM.
Take `O=C(O)c1cc2sc(Br)cc2[nH]1` [Compound 5, 2-bromo-4H-thieno[3,2-b]pyrrole-5-carboxylic acid]: in assay [1] (2 h), the response vs control in vivo at 10 mg/kg was below 150% and the response vs control in vivo at 50 mg/kg was 150 to 200%. Further, in assay [1] (6 h), the response vs control in vivo at 10 mg/kg is below 150% and the response vs control in vivo at 50 mg/kg is below 150%. Besides, on Human DAAO (setting [2]), the IC50 was below 1 µM.
